Earlier results in patent US9463220B2, “Method for inducing twin calving” (China Agricultural University, priority 2013, dated 2016).

System: cow
Conditions: small doses of FSH with estrus synchronization 13 days before and aspiration of more than 3 large follicles on day 7

follicle-stimulating hormone [FSH]
rate of 2-3 ovulations: 90%
